Among the data in patent publication US7598382B2, “Aryl substituted imidazoquinolines” (Coley Pharmaceutical Group, Inc., priority 2002, dated 2009) are melting point values, retold here.

SMILES strings stand for the structures.

Regarding `CCOCc1nc2c(N)nc3cc(-c4ccccc4)ccc3c2n1CC1COC(C)(C)O1` (stereo not shown) [Example 161, 1-[(2,2-Dimethyl-1,3-dioxolan-4-yl)methyl]-2-ethoxymethyl-7-phenyl-1H-imidazo[4,5-c]quinolin-4-amine], the melting point (usually the temperature, or range, at which the solid turns liquid) lay within 168 to 170 °C. The figure for `CCOCc1nc2c(N)nc3cc(-c4cccnc4)ccc3c2n1CC(O)CO` (stereo not shown) [Example 162, 3-[4-Amino-2-ethoxymethyl-7-(pyridin-3-yl)-1H-imidazo[4,5-c]quinolin-1-yl]propane-1,2-diol] is 218 to 220 °C. Regarding `CCOCc1nc2c(N)nc3cc(-c4ccccc4)ccc3c2n1CCCOC` [Example 163, 2-Ethoxymethyl-1-(3-methoxypropyl)-7-phenyl-1H-imidazo[4,5-c]quinolin-4-amine], the melting point was 146 to 147 °C. As for `CCOCc1nc2c(N)nc3cc(-c4cccnc4)ccc3c2n1CCCOC` [Example 164, 2-Ethoxymethyl-1-(3-methoxypropyl)-7-(pyridin-3-yl)-1H-imidazo[4,5-c]quinolin-4-amine], the figure is 151 to 152 °C; as for `CCOCc1nc2c(N)nc3cc(-c4ccncc4)ccc3c2n1CCCOC` [Example 165, 2-Ethoxymethyl-1-(3-methoxypropyl)-7-(pyridin-4-yl)-1H-imidazo[4,5-c]quinolin-4-amine], 225 to 226 °C; as for `CCOCc1nc2c(N)nc3cc(-c4ccc(CO)cc4)ccc3c2n1CCCOC` [Example 166, 2-Ethoxymethyl-1-(3-methoxypropyl)-7-(4-hydroxymethylphenyl)-1H-imidazo[4,5-c]quinolin-4-amine], 228 to 229 °C. The compound `CCOCc1nc2c(N)nc3cc(-c4cncc(CO)c4)ccc3c2n1CCCOC` [Example 167, 2-Ethoxymethyl-1-(3-methoxypropyl)-7-(5-hydroxymethylpyridin-3-yl)-1H-imidazo[4,5-c]quinolin-4-amine] returned a melting point of 198 to 199 °C.

The compound `CCOCc1nc2c(N)nc3cc(-c4ccco4)ccc3c2n1CCCOC` [Example 168, 2-Ethoxymethyl-7-(furan-2-yl)-1-(3-methoxypropyl)-1H-imidazo[4,5-c]quinolin-4-amine] yielded a melting point of 144 to 145 °C. The figure for `CCOCc1nc2c(N)nc3cc(-c4ccc(Cl)cc4)ccc3c2n1CCCOC` [Example 169, 7-(4-Chlorophenyl)-2-ethoxymethyl-1-(3-methoxypropyl)-1H-imidazo[4,5-c]quinolin-4-amine] is 188 to 190 °C. The figure for `CCOCc1nc2c(N)nc3cc(-c4ccc(C(=O)N5CCOCC5)cc4)ccc3c2n1CCCOC` [Example 170, {4-[4-Amino-2-ethoxymethyl-1-(3-methoxypropyl)-1H-imidazo[4,5-c]quinolin-7-yl]phenyl}morpholin-4-ylmethanone] is 163 to 165 °C; for `CCOCc1nc2c(N)nc3cc(-c4cccc(C(=O)NCC(C)C)c4)ccc3c2n1CCCOC` [Example 171, 3-[4-Amino-2-ethoxymethyl-1-(3-methoxypropyl)-1H-imidazo[4,5-c]quinolin-7-yl]-N-(2-methylpropyl)benzamide] it is 209 to 210 °C. As for `CCOCc1nc2c(N)nc3cc(-c4ccc(S(=O)(=O)CC)cc4)ccc3c2n1CCCOC` [Example 172, 7-[(4-Ethanesulfonyl)phenyl]-2-ethoxymethyl-1-(3-methoxypropyl)-1H-imidazo[4,5-c]quinolin-4-amine], the figure is 156 to 158 °C.

With `CCOCc1nc2c(N)nc3cc(-c4ccc(OC(C)C)cc4)ccc3c2n1CCCOC` [Example 173, 2-Ethoxymethyl-7-[4-(2-propoxy)phenyl]-1-(3-methoxypropyl)-1H-imidazo[4,5-c]quinolin-4-amine], the melting point lay in the range of 175 to 177 °C. The figure for `CCOCc1nc2c(N)nc3cc(-c4cccc(C(=O)N5CCOCC5)c4)ccc3c2n1CCCOC` [Example 174, {3-[4-Amino-2-ethoxymethyl-1-(3-methoxypropyl)-1H-imidazo[4,5-c]quinolin-7-yl]phenyl}morpholin-4-ylmethanone] is 174 to 176 °C.

The compound `CCOCc1nc2c(N)nc3cc(-c4cccnc4)ccc3c2n1CC1CCN(C(=O)OC(C)(C)C)CC1` [Example 176, tert-Butyl 4-{[4-amino-2-ethoxymethyl-7-(pyridin-3-yl)-1H-imidazo[4,5-c]quinolin-1-yl]methyl}piperidine-1-carboxylate] came in with a melting point of 197 to 198 °C. `CCOCc1nc2c(N)nc3cc(-c4cccnc4)ccc3c2n1CC1CCN(C(=O)C2CCCO2)CC1` (stereo not shown) [Example 182, 2-Ethoxymethyl-7-(pyridin-3-yl)-1-{[1-(tetrahydrofuran-2-ylcarbonyl)piperidin-4-yl]methyl}-1H-imidazo[4,5-c]quinolin-4-amine] displayed a melting point of 191 to 192 °C.

`COCCc1nc2c(N)nc3cc(-c4cccnc4)ccc3c2n1CCCN1CCCC1=O` [Example 183, 1-{3-[4-Amino-2-(2-methoxyethyl)-7-(pyridin-3-yl)-1H-imidazo[4,5-c]quinolin-1-yl]propyl}pyrrolidin-2-one]: the melting point lay in the range of 218 to 221 °C.

As to `COCCc1nc2c(N)nc3cc(-c4ccncc4)ccc3c2n1CCCN1CCCC1=O` [Example 184, 1-{3-[4-Amino-2-(2-methoxyethyl)-7-(pyridin-4-yl)-1H-imidazo[4,5-c]quinolin-1-yl]propyl}pyrrolidin-2-one], the melting point is 232 to 235 °C. As for `COCCc1nc2c(N)nc3cc(-c4cccc(NS(C)(=O)=O)c4)ccc3c2n1CCCN1CCCC1=O` [Example 186, N-(3-{4-Amino-2-(2-methoxyethyl)-1-[3-(2-oxopyrrolidin-1-yl)propyl]-1H-imidazo[4,5-c]quinolin-7-yl}phenyl)methanesulfonamide], the figure is 210 to 213 °C; as for `COCCc1nc2c(N)nc3ccc(-c4cccnc4)cc3c2n1CCCN1CCCC1=O` [Example 188, 1-{3-[4-Amino-2-(2-methoxyethyl)-8-(pyridin-3-yl)-1H-imidazo[4,5-c]quinolin-1-yl]propyl}pyrrolidin-2-one], 221 to 224 °C; as for `COCCc1nc2c(N)nc3ccc(-c4csc5ccccc45)cc3c2n1CCCN1CCCC1=O` [Example 190, 1-{3-[4-amino-8-(benzo[b]thiophen-3-yl)-2-(2-methoxyethyl)-1H-imidazo[4,5-c]quinolin-1-yl]propyl}pyrrolidin-2-one], 202 to 205 °C. The figure for `CCOCc1nc2c(N)nc3cc(-c4ccccc4)ccc3c2n1CC1CCN(C(=O)OC(C)(C)C)CC1` [Example 191, tert-Butyl 4-[(4-amino-2-ethoxymethyl-7-phenyl-1H-imidazo[4,5-c]quinolin-1-yl)methyl]piperidine-1-carboxylate] is 194 to 195 °C. As for `CCOCc1nc2c(N)nc3cc(-c4ccccc4)ccc3c2n1CC1CCNCC1` [Example 192, 2-Ethoxymethyl-7-phenyl-1-(piperidin-4-ylmethyl)-1H-imidazo[4,5-c]quinolin-4-amine], the figure is 142 to 143 °C; as for `CCOCc1nc2c(N)nc3cc(-c4ccccc4)ccc3c2n1CC1CCN(S(C)(=O)=O)CC1` [Example 193, 2-Ethoxymethyl-1-{[1-(methanesulfonyl)piperidin-4-yl]methyl}-7-phenyl-1H-imidazo[4,5-c]quinolin-4-amine], 224 to 225 °C; as for `CCOCc1nc2c(N)nc3cc(-c4ccccc4)ccc3c2n1CC1CCN(C(=O)N2CCOCC2)CC1` [Example 195, 2-Ethoxymethyl-1-{[1-(morpholin-4-ylcarbonyl)piperidin-4-yl]methyl}-7-phenyl-1H-imidazo[4,5-c]quinolin-4-amine], 208 to 209 °C. `Nc1nc2cc(-c3ccccc3)ccc2c2c1nc(CC1CC1)n2CCOc1ccccc1` [Example 196, 2-Cyclopropylmethyl-1-(2-phenoxyethyl)-7-phenyl-1H-imidazo[4,5-c]quinolin-4-amine]: the melting point was in the range of 188 to 189 °C. The figure for `CCOCc1nc2c(N)nc3cc(-c4ccccc4)ccc3c2n1CCOc1ccccc1` [Example 197, 2-Ethoxymethyl-1-(2-phenoxyethyl)-7-phenyl-1H-imidazo[4,5-c]quinolin-4-amine] is 159 to 160 °C. With `COc1ccc(Cc2nc3c(N)nc4cc(-c5ccccc5)ccc4c3n2CCOc2ccccc2)cc1` [Example 198, 2-(4-Methoxybenzyl)-1-(2-phenoxyethyl)-7-phenyl-1H-imidazo[4,5-c]quinolin-4-amine], the melting point is 197 to 198 °C. As for `COCCc1nc2c(N)nc3cc(-c4ccccc4)ccc3c2n1CCCCNS(C)(=O)=O` [Example 199, N-{4-[4-Amino-2-(2-methoxyethyl)-7-phenyl-1H-imidazo[4,5-c]quinolin-1-yl]butyl}methanesulfonamide], the figure is 201 to 202 °C; as for `CCCc1nc2c(N)nc3cc(-c4ccccc4)ccc3c2n1CC(C)(C)NS(C)(=O)=O` [Example 200, N-[2-(4-Amino-7-phenyl-2-propyl-1H-imidazo[4,5-c]quinolin-1-yl)-1,1-dimethylethyl]methanesulfonamide], 135 to 141 °C; as for `CCOCc1nc2c(N)nc3cc(-c4ccccc4)ccc3c2n1CC(C)(C)NC(=O)C1CCCCC1` [Example 202, Cyclohexane N-[2-(4-amino-2-ethoxymethyl-7-phenyl-1H-imidazo[4,5-c]quinolin-1-yl)-1,1-dimethylethyl]carboxamide], 195 to 198 °C. Compound `CCOCc1nc2c(N)nc3cc(-c4ccccc4)ccc3c2n1CC(C)(C)NC(=O)NC1CCCCC1` [Example 203, N-[2-(4-Amino-2-ethoxymethyl-7-phenyl-1H-imidazo[4,5-c]quinolin-1-yl)-1,1-dimethylethyl]-N′-cyclohexylurea] showed a melting point of 152 to 156 °C. In turn, `Nc1nc2cc(-c3ccccc3)ccc2c2c1ncn2CCCN1CCCC1=O` [Example 204, 1-[3-(4-Amino-7-phenyl-1H-imidazo[4,5-c]quinolin-1-yl)propyl]pyrrolidin-2-one] displayed a melting point of 201 to 204 °C.

As for `CCOCc1nc2c(N)nc3cc(-c4ccccc4)ccc3c2n1CCCN1CCCC1=O` [Example 205, 1-[3-(4-Amino-2-ethoxymethyl-7-phenyl-1H-imidazo[4,5-c]quinolin-1-yl)propyl]pyrrolidin-2-one], the melting point fell in the range of 199 to 203 °C.
